{"source": "patent US20100285959A1", "about": "“HERBICIDAL MIXTURES” (priority 2006, published 2010)", "test_in_all_cases": "Test 4 field trial, postemergence", "key": {"[1]": {"tested_on": "common lambsquarters (CHEAL)", "assay_type": "in vivo, Chenopodium album", "settings": "clodinafop 56 or fenoxaprop 90 g a.i./ha alone"}, "wild buckwheat (POLCO)": {"tested_on": "wild buckwheat (POLCO)", "assay_type": "in vivo, Polygonum convolvulus", "settings": "clodinafop 56 or fenoxaprop 90 g a.i./ha alone", "experimental": "(§1) A field trial was conducted to evaluate the effects of mixtures of Compound 2 with commercial herbicides on spring wheat (TRZAS, Triticum aestivum L.) and several weed species. Wheat seeds (cv. ‘AC Intrepid’) were planted in late spring season, 3.8 cm deep in a loam soil having 2.7% organic matter and a pH of 7. Plots were 6 m long by 2.5 m wide. The field was managed using no-till practices. The plots were arranged in a randomized complete block design with each treatment being replicated four times. Treatments were applied postemergence 25 days after planting using a backpack sprayer delivering a spray volume of 55 L/ha using a pressure of 276 kPa. […] Compound 2 and clodinafop treatments, alone and in combination, also included a surfactant. Weed species present in the experimental plots in sufficient quantity to be evaluated included wild oat (AVEFA, Avena fatua L.), common lambsquarters (CHEAL, Chenopodium album L.), kochia (KCHSC, Kochia scoparia (L.) Schrad.), wild buckwheat (POLCO, Polygonum convolvulus L.), Russian thistle (SASKR, Salsola kali L. ssp. ruthenica (Iljin) Soo), and field pennycress (THLAR, Thlaspi arvense L.). […] Common lambsquarters was evaluated only at 14 days after application. […] Results are the means of the four replicates."}, "wild oat (AVEFA)": {"tested_on": "wild oat (AVEFA)", "assay_type": "in vivo, Avena fatua", "set-up": "scale not given here", "settings": "clodinafop 56 or fenoxaprop 90 g a.i./ha alone", "experimental": "as §1"}, "spring wheat (TRZAS)": {"tested_on": "spring wheat (TRZAS)", "settings": "clodinafop 56 or fenoxaprop 90 g a.i./ha alone", "experimental": "as §1"}, "field pennycress (THLAR)": {"tested_on": "field pennycress (THLAR)", "assay_type": "in vivo, Thlaspi arvense", "set-up": "scale not given here", "settings": "clodinafop 56 or fenoxaprop 90 g a.i./ha alone", "experimental": "as §1"}, "kochia (KCHSC)": {"tested_on": "kochia (KCHSC)", "assay_type": "in vivo, Kochia scoparia", "settings": "clodinafop 56 g a.i./ha alone", "experimental": "as §1"}, "Russian thistle (SASKR)": {"tested_on": "Russian thistle (SASKR)", "assay_type": "in vivo, Salsola kali", "set-up": "scale not given here", "settings": "clodinafop 56 or fenoxaprop 90 g a.i./ha alone", "experimental": "as §1"}}}
{"smiles": "C[C@@H](Oc1ccc(Oc2ncc(Cl)cc2F)cc1)C(=O)O", "note": "[Clodinafop]", "values": [{"measurement": "CHEAL Obs", "setting": "[1]; 14 DAA", "result": 0}, {"measurement": "CHEAL Obs", "setting": "[1]; 35 DAA", "result": 0}, {"measurement": "POLCO Obs", "setting": "wild buckwheat (POLCO); 14 DAA", "result": 0}, {"measurement": "POLCO Obs", "setting": "wild buckwheat (POLCO); 35 DAA", "result": 0}, {"measurement": "AVEFA Obs", "setting": "wild oat (AVEFA); 14 DAA", "result": 97}, {"measurement": "AVEFA Obs", "setting": "wild oat (AVEFA); 35 DAA", "result": 99}, {"measurement": "AVEFA Obs", "setting": "wild oat (AVEFA); 55 DAA", "result": 98}, {"measurement": "TRZAS Obs", "setting": "spring wheat (TRZAS); 14 DAA", "result": 0}, {"measurement": "TRZAS Obs", "setting": "spring wheat (TRZAS); 35 DAA", "result": 0}, {"measurement": "TRZAS Obs", "setting": "spring wheat (TRZAS); 55 DAA", "result": 0}, {"measurement": "THLAR Obs", "setting": "field pennycress (THLAR); 14 DAA", "result": 0}, {"measurement": "THLAR Obs", "setting": "field pennycress (THLAR); 35 DAA", "result": 0}, {"measurement": "KCHSC Obs", "setting": "kochia (KCHSC); 14 DAA", "result": 0}, {"measurement": "KCHSC Obs", "setting": "kochia (KCHSC); 35 DAA", "result": 0}, {"measurement": "SASKR Obs", "setting": "Russian thistle (SASKR); 14 DAA", "result": 0}, {"measurement": "SASKR Obs", "setting": "Russian thistle (SASKR); 35 DAA", "result": 0}]}
